According to patent US20260041093A1, “Ionic Derivatives Of Aromatic Carboxylic Acid For Use As Plant Stimulants, Method For Stimulating Plants And Use Of These Derivatives For Manufacturing Compositions For Stimulating Plants” (FUNDACJA UNIWERSYTETU IM. ADAMA MICKIEWICZA W POZNANIU, priority 2022, published 2026):
Read-outs that look alike come from different tables or passages of the source.

Tests used:
[1] = test system: apple trees (M9 rootstocks); settings: 4 sprays at 14-day intervals; 3-chlorosalicylate 100 mg/L, benzothiadiazole salt 25 mg/L
Source text: Flowers were counted during the experiment, and the number of shoots and leaves in the fall.

[2] = test system: tomato seedlings; assay: Tomato seedlings in pots sprayed 3 times: height, fresh and dry weight, chlorophyll (Example 3); type: in vivo; settings: 80 mg/L, benzothiadiazole salt 30 mg/L
Source text: Tomato seedlings (12 according to development scale BBCH) were planted into pots with peat substrate (P9 pots having 0.5 l). Plant pots were placed in greenhouse and cultivated for a 1 and a half month. Plants were sprayed with tested substance 3 times, in 10-day interval. […] 2-methoxyethyl(trimethyl)-ammonium benzo[1,2,3]thiadiazole-7-carboxylate; 3. […] 2-methoxyethyl(trimethyl)ammonium 3-chlorosalicylate; 7. 2-ethoxyethyl(trimethyl)ammonium 3-chlorosalicylate; 8. ethyl(trimethyl)ammonium 3-chlorosalicylate at a concentration od 80 mg/l. Plants were sprayed with tested substances three times at 10-day intervals. Plants in peat substrate treated with water only were the control. During the course of the experiment, the height of the plants was measured, and at the end the fresh and dry weight of the aboveground part was evaluated. Moreover chlorophyll content was measured. The experiment was conducted in 4 repetitions with 5 plants in each (a total of 20 plants per each variant of treatment).

[3] = test system: broccoli; assay: Broccoli seedlings in pots sprayed: height, fresh and dry weight (Example 4); type: in vivo
Description: Broccoli seedling were planted into pots with peat substrate (P9 pots having 0.5 l). Pots were placed in greenhouse and cultivated for a 1 month. […] 2-fluoroethyl(trimethyl)ammonium benzo[1,2,3]thiadiazole-7-carboxylate; 3. 2-bromoethyl(trimethyl)ammonium benzo[1,2,3]thiadiazole-7-carboxylate; 4. 2-chloroethyl(trimethyl)ammonium benzo[1,2,3]thiadiazole-7-carboxylate; 5. 2-iodoethyl(trimethyl)ammonium benzo[1,2,3]thiadiazole-7-carboxylate used at a concentration of 30 mg/L and 6. 2-hydroxyethyl(trimethyl)ammonium 3-chlorosalicylate (tested also at a concentration of 50 mg/L); 7. 3-chlorosalicylate 2-fluoroethyl(trimethyl)ammonium; 8. 3-chlorosalicylate 2-bromoethyl(trimethyl)ammonium; 9. 3-chlorosalicylate 2-chloroethyl(trimethyl)ammonium; 10. 3-chlorosalicylate 2-iodoethyl(trimethyl)ammonium used at a concentration of 80 mg/L. Plants were sprayed with tested substances three times at 10-day intervals. Plants treated with water only were the untreated control. During the course of the experiment, the height of the plants was measured, and at the end the fresh and dry weight of the aboveground part was evaluated. The experiment was conducted in 4 repetitions with 5 plants in each (a total of 20 plants per each combination).

[4] = test system: bell pepper; assay: Bell pepper seedlings in pots sprayed: height, fresh and dry weight (Example 5); type: in vivo
Description: Pepper seedlings were planted into pots with peat substrate (P9 pots having 0,5 l). Pots were placed in greenhouse and cultivated for a 1 month. […] Plants treated with water only were the untreated control. During the course of the experiment, the height of the plants was measured, and at the end the fresh and dry weight of the aboveground part was evaluated.

[5] = test system: winter wheat
Description: The experiment was established using the long strip method, in four repetitions Gross area of each plot was 48 m^2, while the harvest area was 23.25 m^2 net. Following variants of treatment were tested: • 1. Control—no stimulant application, standard fungicide programme • 2. Stimulant application at BBCH 32, standard fungicide programme • 3. Stimulant application at BBCH 32, no fungicide application • 4. Stimulant application at BBCH 55 and 10-12 days later, standard fungicide programme • 5. […] In this experiment, standard NPK fertilization was applied, using both bulk and liquid fertilizers.
The experiment was established using the long strip method, in four repetitions Gross area of each plot was 48 m2, while the harvest area was 23.25 m2 net. Following variants of treatment were tested: • 1. Control—no stimulant application, standard fungicide programme, • 2. Stimulant application at BBCH 32, standard fungicide programme • 3. Stimulant application at BBCH 32, no fungicide application • 4. Stimulant application at BBCH 55 and 10-12 days later, standard fungicide programme • 5. […] In the experiment, uniform NPK fertilization was applied, using both bulk and liquid fertilizers.

[6] = 3-chlorosalicylate 80 mg/L, benzothiadiazole salt 30 mg/L
[7] = BBCH 32, standard fungicide protection, 80 mg/L, benzothiadiazole salt 30 mg/L
[8] = BBCH 32, stimulant only, 80 mg/L, benzothiadiazole salt 30 mg/L
[9] = BBCH 55, standard fungicide protection, 80 mg/L, benzothiadiazole salt 30 mg/L
[10] = BBCH 55, without fungicide, 80 mg/L, benzothiadiazole salt 30 mg/L
[11] = first sampling date, 80 mg/L, benzothiadiazole salt 30 mg/L
[12] = last sampling date, late milk, 80 mg/L, benzothiadiazole salt 30 mg/L

## C[N+](C)(C)CCO.O=C([O-])c1cccc2nnsc12
[1]
  Average number of flowers per plant: 31.1 b
  Average number of leaves per plant: 47.1 b
  Average number of shoots per plant: 6.5 b
[2]; chitosan lactate 50 mg/l
  Average plant height, before second treatment: 146.7 b mm
  Average plant height, before third treatment: 337.1 b mm
  Average plant height, initial height, before first treatment: 60.5 a mm
  Chlorophyll content (SPAD), a day after treatment #1: 76.1 b
  Chlorophyll content (SPAD), a day after treatment #2: 81.3 c
  Chlorophyll content (SPAD), a day after treatment #3: 78.2 b
  Plant height increase: 276.6 b mm
[2]; above-ground part
  Average dry mass: 87.5 b g
  Average fresh mass: 333.5 b g
[2]; before treatment #1, chitosan lactate 50 mg/l
  Chlorophyll content (SPAD), Treatment #1: 49.6 a
[2]; before treatment #2, chitosan lactate 50 mg/l
  Chlorophyll content (SPAD), Treatment #2: 47.5 a
[2]; before treatment #3, chitosan lactate 50 mg/l
  Chlorophyll content (SPAD), Treatment #3: 50.1 a
[3]; [6]
  Average dry mass: 0.7 b g
  Average fresh mass: 7.8 c g
  Average plant height, initial height, before first treatment: 39.2 c mm
  Average plant height, second treatment: 187.2 b mm
  Average plant height, third treatment: 215.7 b mm
  Plant height increase: 176.5 b mm
[3]; FIG. 2, treated once, 5 mg/L, control plant developed 3 leaves
  number of leaves developed: 4
[4]; 20 mg/L
  Average dry mass: 13.3 c g
  Average fresh mass: 94.6 c g
  Average plant height, initial height, before first treatment: 43.5 b mm
  Average plant height, second treatment: 150.8 b mm
  Average plant height, third treatment: 226.6 c mm
  Plant height increase: 183.1 c mm
[4]; [6]
  Average dry mass: 15.6 g·days
  Average fresh mass: 115.5 g·days
  Average plant height, initial height, before first treatment: 39.9 a mm
  Average plant height, second treatment: 142.9 a mm
  Average plant height, third treatment: 270.8 d mm
  Plant height increase: 230.9 d mm
[5]; [7]
  increase in calcium uptake: 7%
  increase in gluten content of wheat grain: 9%
  increase in magnesium uptake: 8%
  increase in nitrogen uptake: 7%
  increase in phosphorus uptake: 9%
  increase in potassium uptake: 7%
  increase in protein content of wheat grain: 12%
[5]; [8]
  increase in calcium uptake: 7%
  increase in gluten content of wheat grain: 8%
  increase in magnesium uptake: 9%
  increase in nitrogen uptake: 8%
  increase in phosphorus uptake: 9%
  increase in potassium uptake: 8%
  increase in protein content of wheat grain: 11%
[5]; [9]
  increase in calcium uptake: 12%
  increase in gluten content of wheat grain: 10%
  increase in magnesium uptake: 11%
  increase in nitrogen uptake: 12%
  increase in phosphorus uptake: 11%
  increase in potassium uptake: 7%
  increase in protein content of wheat grain: 12%
[5]; [10]
  increase in calcium uptake: 8%
  increase in gluten content of wheat grain: 9%
  increase in magnesium uptake: 10%
  increase in nitrogen uptake: 15%
  increase in phosphorus uptake: 11%
  increase in potassium uptake: 6%
  increase in protein content of wheat grain: 11%
[5]; first sampling date (beginning of shooting), first of two sprayed objects (with / without fungicide, respectively), 80 mg/L, benzothiadiazole salt 30 mg/L
  fresh weight of aboveground part higher than control: 11%
[5]; [11]
  dry root mass higher than control: 14%
  fresh root mass higher than control: 12%
[5]; first sampling date, first of two sprayed objects, 80 mg/L, benzothiadiazole salt 30 mg/L
  dry weight of aboveground part higher than control: 10%
[5]; first sampling date, second of two sprayed objects (with / without fungicide, respectively), 80 mg/L, benzothiadiazole salt 30 mg/L
  fresh weight of aboveground part higher than control: 14%
[5]; first sampling date, second of two sprayed objects, 80 mg/L, benzothiadiazole salt 30 mg/L
  dry weight of aboveground part higher than control: 14%
[5]; first term, stimulant at BBCH 32, with or without fungicide
  SPAD chlorophyll readings versus control: significantly higher
[5]; [12]
  more aboveground biomass, BBCH 55 treatment compared to control: 30%
  more aboveground biomass, BBCH 55 treatment compared to plants sprayed at an earlier stage: 13%
  more root biomass, BBCH 55 treatment compared to control: 21%
  more root biomass, BBCH 55 treatment compared to plants sprayed at an earlier stage: 14%
[5]; second sampling date
  fresh and dry root weight versus other experimental facilities: comparable
[5]; second sampling date, end of heading
  fresh and dry matter yields versus other experimental facilities: comparable
[5]; second term, stimulant at BBCH 32 without fungicide versus other objects
  SPAD chlorophyll readings: highest
[5]; third term, with or without fungicide
  chlorophyll content of wheat leaves versus control: significantly higher
